In patent publication US20260042764A1, “COMPOSITIONS AND METHODS FOR INHIBITION OF KRAS” (TheRas, Inc., priority 2022, published 2026):

How the values were obtained:
[1] = molecular target: T1, Avi-KRAS WT (2-169) GTP/RAF1 RBD-3xFLAG (51-131) (Homo sapiens, UniProt P01116); assay: Raf1-KRAS WT-GTP disruption HTRF assay (Biological Example 3); type: binding; conditions: KRAS WT, GTP-loaded
T1 construct: Avi-KRAS WT (2-169)
Procedure, shortened: (§1)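 HTRF PPI read-out (ex 320 nm, em 615 nm) after 1 h RT incubation with shaking; data as % activity vs DMSO (100%), IC50 from curve fit. Complex 50 nM, RBD reagent 75 nM; compound 30-0.005 μM, 3-fold.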

SW620 cells (KRAS G12V) = assay: Cell-based pERK HTRF assay in SW620 cell (Biological Example 4); conditions: Homo sapiens, SW-620, SW620 (KRAS G12V) cells
Procedure, shortened: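 SW620 cells were treated for 4 h with compound in a 9-point half-log series from 1 μM top (0.25% DMSO), then lysed. Phospho-ERK was detected by HTRF with d2 and Eu cryptate antibodies after 4–24 h at room temperature, read at 615 nm emission.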

[2] = molecular target: T2, Avi-KRAS G12D (2-169) GTP/RAF1 RBD-3xFLAG (51-131) (Homo sapiens, UniProt P01116, G12D); assay: Raf1-KRAS G12D-GTP disruption HTRF assay (Biological Example 3); type: binding; conditions: KRAS G12D, GTP-loaded
T2 construct: Avi-KRAS G12D (2-169)
Procedure, shortened: as §1

[3] = molecular target: T3, Avi-KRAS G12C (2-169) GTP/RAF1 RBD-3xFLAG (51-131) (Homo sapiens, UniProt P01116, G12C); assay: Raf1-KRAS G12C-GTP disruption HTRF assay (Biological Example 3); type: binding; conditions: KRAS G12C, GTP-loaded
T3 construct: Avi-KRAS G12C (2-169)
Procedure, shortened: as §1

GP2d cells (KRAS G12D) = assay: Cell-based pERK HTRF assay in GP2d cell (Biological Example 2); conditions: GP2d, GP2d (KRAS G12D) cells
Procedure, shortened: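 60 min compound, 0.25% DMSO, 9-pt half-log curve from 1 μM or 100 nM; DMEM/10% FBS.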

[4] = molecular target: T4, Avi-KRAS G12V (2-169) GTP/RAF1 RBD-3xFLAG (51-131) (Homo sapiens, UniProt P01116, G12V); assay: Raf1-KRAS G12V-GTP disruption HTRF assay (Biological Example 3); type: binding; conditions: KRAS G12V, GTP-loaded
T4 construct: Avi-KRAS G12V (2-169)
Procedure, shortened: as §1

T4 sequence (P01116 2-169 isoform P01116-2 G12V): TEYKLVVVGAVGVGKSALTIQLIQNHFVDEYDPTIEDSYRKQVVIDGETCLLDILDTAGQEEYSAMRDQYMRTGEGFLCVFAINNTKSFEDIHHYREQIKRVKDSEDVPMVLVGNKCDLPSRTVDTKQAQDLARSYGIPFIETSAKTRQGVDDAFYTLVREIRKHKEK
T2 sequence (P01116 2-169 isoform P01116-2 G12D): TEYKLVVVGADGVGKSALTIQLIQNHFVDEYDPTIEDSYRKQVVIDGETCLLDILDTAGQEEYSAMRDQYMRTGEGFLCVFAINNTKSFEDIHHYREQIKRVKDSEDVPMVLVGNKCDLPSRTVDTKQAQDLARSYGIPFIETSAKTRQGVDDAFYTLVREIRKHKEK
T3 sequence (P01116 2-169 isoform P01116-2 G12C): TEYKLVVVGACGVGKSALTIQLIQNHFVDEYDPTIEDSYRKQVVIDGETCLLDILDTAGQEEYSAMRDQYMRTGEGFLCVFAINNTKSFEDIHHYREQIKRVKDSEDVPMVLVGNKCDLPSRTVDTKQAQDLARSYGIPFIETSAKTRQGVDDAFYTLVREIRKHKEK
T1 sequence (P01116 2-169 isoform P01116-2): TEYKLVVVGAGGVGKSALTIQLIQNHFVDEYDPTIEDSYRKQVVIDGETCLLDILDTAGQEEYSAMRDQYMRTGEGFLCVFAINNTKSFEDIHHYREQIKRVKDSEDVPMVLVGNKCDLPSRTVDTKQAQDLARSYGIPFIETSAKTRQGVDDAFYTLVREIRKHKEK

Row | IC50 [1] | IC50 (SW620 cells (KRAS G12V)) | IC50 [2] | IC50 [3] | IC50 (GP2d cells (KRAS G12D)) | IC50 [4] | SMILES
1 | 1 to 10 µM | < 0.1 µM | 1 to 10 µM | 1 to 10 µM | < 0.1 µM | 1 to 10 µM | CCN(c1nc(OC[C@@]23CCCN2C[C@H](F)C3)nc2c(F)c(-c3ccc(F)c4sc(N)c(C#N)c34)c(C(F)(F)F)cc12)[C@H]1CCN(C(=O)N2CC(F)C2)[C@H]1C (atropisomer, axis not shown) [Compound 818]
2 | 0.1 to 1 µM | < 0.1 µM | 0.1 to 1 µM | 0.1 to 1 µM | < 0.1 µM | 0.1 to 1 µM | CCN(c1nc(OC[C@@]23CCCN2C[C@H](F)C3)nc2c(F)c(-c3ccc(F)c4sc(N)c(C#N)c34)c(C(F)(F)F)cc12)[C@H]1C[C@H](COC)N(C(=O)[C@@H]2CC2(F)F)C1 (atropisomer, axis not shown) [Compound 854]
3 | 1 to 10 µM | < 0.1 µM | 0.1 to 1 µM | 1 to 10 µM | < 0.1 µM | 1 to 10 µM | CCN(c1nc(OC[C@@]23CCCN2C[C@H](F)C3)nc2c(F)c(-c3ccc(F)c4sc(N)c(C#N)c34)c(C(F)(F)F)cc12)[C@H]1C[C@H]2CN(C(C)(C)C)C(=O)N2C1 (atropisomer, axis not shown) [Compound 936]
4 | 0.1 to 1 µM | < 0.1 µM | 0.1 to 1 µM | 0.1 to 1 µM | < 0.1 µM | 0.1 to 1 µM | [2H][C@]1(N(CC)c2nc(OC[C@@]34CCCN3C[C@H](F)C4)nc3c(F)c(-c4ccc(F)c5sc(N)c(C#N)c45)c(C(F)(F)F)cc23)CCN(C(=O)N(C)C)C1 (atropisomer, axis not shown) [Compound 859]
5 | 1 to 10 µM | < 0.1 µM | 1 to 10 µM | 1 to 10 µM | < 0.1 µM | > 10 µM | CCN(c1nc(OC[C@@]23CCCN2C[C@H](F)C3)nc2c(F)c(-c3ccc(F)c4sc(N)c(C#N)c34)c(C(F)(F)F)cc12)[C@@H]1CCN2C(=O)OC[C@H]12 (atropisomer, axis not shown) [Compound 941]
6 | 1 to 10 µM | < 0.1 µM | 0.1 to 1 µM | 0.1 to 1 µM | < 0.1 µM | 0.1 to 1 µM | CN(Cc1cccnn1)c1nc(OC[C@@]23CCCN2C[C@H](F)C3)nc2c(F)c(-c3ccc(F)c4sc(N)c(C#N)c34)c(C(F)(F)F)cc12 (atropisomer, axis not shown) [Compound 876]
7 | ≤ 0.1 µM | < 0.1 µM | ≤ 0.1 µM | ≤ 0.1 µM | < 0.1 µM | ≤ 0.1 µM | CCN(c1nc(OC[C@@]23CCCN2C[C@H](F)C3)nc2c(F)c(-c3ccc(F)c4sc(N)c(C#N)c34)c(C(F)(F)F)cc12)[C@H]1C[C@H]2C[C@@H](C)C(=O)N2C1 (atropisomer, axis not shown) [Compound 866]
8 | 0.1 to 1 µM | < 0.1 µM | 0.1 to 1 µM | 0.1 to 1 µM | < 0.1 µM | 0.1 to 1 µM | C/C=C/C(=O)N1C[C@@H](N(CC)c2nc(OC[C@@]34CCCN3C[C@H](F)C4)nc3c(F)c(-c4ccc(F)c5sc(N)c(C#N)c45)c(C(F)(F)F)cc23)C[C@@H]1COC (atropisomer, axis not shown) [Compound 845]
9 | 0.1 to 1 µM | < 0.1 µM | 0.1 to 1 µM | 1 to 10 µM | < 0.1 µM | 0.1 to 1 µM | CCN(c1nc(OC[C@@]23CCCN2C[C@H](F)C3)nc2c(F)c(-c3ccc(F)c4sc(N)c(C#N)c34)c(C(F)(F)F)cc12)[C@H]1CCN(C(=O)OC)[C@@H]1COC (atropisomer, axis not shown) [Compound 923]
10 | 0.1 to 1 µM | < 0.1 µM | 1 to 10 µM | 1 to 10 µM | < 0.1 µM | 1 to 10 µM | CCN(c1nc(OC[C@@]23CCCN2C[C@H](F)C3)nc2c(F)c(-c3ccc(F)c4sc(N)c(C#N)c34)c(C(F)(F)F)cc12)[C@H]1CC[C@@](C)(C(=O)N(C)C)C1 (atropisomer, axis not shown) [Compound 873]
11 | 0.1 to 1 µM | < 0.1 µM | 0.1 to 1 µM | 0.1 to 1 µM | < 0.1 µM | 0.1 to 1 µM | CCN(c1nc(OC[C@@]23CCCN2C[C@H](F)C3)nc2c(F)c(-c3ccc(F)c4sc(N)c(C#N)c34)c(C(F)(F)F)cc12)[C@H]1C[C@H](COC)N(C(=O)C2CC2(F)F)C1 (stereo partly drawn) [Compound 861]
12 | 0.1 to 1 µM | < 0.1 µM | 0.1 to 1 µM | 0.1 to 1 µM | < 0.1 µM | 0.1 to 1 µM | CCN(c1nc(OC[C@@]23CCCN2C[C@H](F)C3)nc2c(F)c(-c3ccc(F)c4sc(N)c(C#N)c34)c(C(F)(F)F)cc12)[C@@H]1CCN(C(=O)[C@@H]2CCO2)[C@@H]1C (atropisomer, axis not shown) [Compound 931]
13 | 1 to 10 µM | 0.1 to 1 µM | 0.1 to 1 µM | 1 to 10 µM | < 0.1 µM | 1 to 10 µM | CCN(c1nc(OC[C@@]23CCCN2C[C@H](F)C3)nc2c(F)c(-c3ccc(F)c4sc(N)c(C#N)c34)c(C(F)(F)F)cc12)[C@H]1CCN(C(=O)[C@H]2CCO2)[C@H]1C (atropisomer, axis not shown) [Compound 868]
14 | 1 to 10 µM | < 0.1 µM | 0.1 to 1 µM | 1 to 10 µM | < 0.1 µM | 1 to 10 µM | CCN(c1nc(OC[C@@]23CCCN2C[C@H](F)C3)nc2c(F)c(-c3ccc(F)c4sc(N)c(C#N)c34)c(C(F)(F)F)cc12)[C@H]1CCCN(C)C1=O (atropisomer, axis not shown) [Compound 967]
15 | 1 to 10 µM | < 0.1 µM | 1 to 10 µM | 1 to 10 µM | < 0.1 µM | 1 to 10 µM | C[C@H](c1cccnc1)N(C)c1nc(OC[C@@]23CCCN2C[C@H](F)C3)nc2c(F)c(-c3ccc(F)c4sc(N)c(C#N)c34)c(C(F)(F)F)cc12 (atropisomer, axis not shown; (aS)) [Compound 904, 2-amino-7-fluoro-4-((S)-8-fluoro-2-(((2R,7aS)-2-fluorotetrahydro-1H-pyrrolizin-7a(5H)-yl)methoxy)-4-(methyl((R)-1-(pyridin-3-yl)ethyl)amino)-6-(trifluoromethyl)quinazolin-7-yl)benzo[b]thiophene-3-carbonitrile]
16 | 0.1 to 1 µM | < 0.1 µM | 0.1 to 1 µM | 0.1 to 1 µM | < 0.1 µM | 0.1 to 1 µM | CCN(c1nc(OC[C@@]23CCCN2C[C@H](F)C3)nc2c(F)c(-c3ccc(F)c4sc(N)c(C#N)c34)c(C(F)(F)F)cc12)[C@H]1C[C@H](COC)N(C(=O)C2C[C@@H]2F)C1 (stereo partly drawn) [Compound 870]
17 | 0.1 to 1 µM | < 0.1 µM | ≤ 0.1 µM | ≤ 0.1 µM | < 0.1 µM | ≤ 0.1 µM | CCN(c1nc(OC[C@@]23CCCN2C[C@H](F)C3)nc2c(F)c(-c3ccc(F)c4sc(N)c(C#N)c34)c(C(F)(F)F)cc12)[C@H]1C[C@H]2COCC(=O)N2C1 (atropisomer, axis not shown) [Compound 882]
18 | 0.1 to 1 µM | < 0.1 µM | 0.1 to 1 µM | 0.1 to 1 µM | < 0.1 µM | 0.1 to 1 µM | CCN(c1nc(OC[C@@]23CCCN2C[C@H](F)C3)nc2c(F)c(-c3ccc(F)c4sc(N)c(C#N)c34)c(C(F)(F)F)cc12)[C@H]1C[C@H](C)N(C(=O)[C@@H]2C[C@@H]2F)C1 (atropisomer, axis not shown) [Compound 841]
19 | 0.1 to 1 µM | < 0.1 µM | 0.1 to 1 µM | 0.1 to 1 µM | < 0.1 µM | 0.1 to 1 µM | CCN(c1nc(OC[C@@]23CCCN2C[C@H](F)C3)nc2c(F)c(-c3ccc(F)c4sc(N)c(C#N)c34)c(C(F)(F)F)cc12)[C@H]1CCN(C(=O)O[C@@H]2CCOC2)[C@@H]1C (atropisomer, axis not shown) [Compound 824]
20 | 0.1 to 1 µM | < 0.1 µM | 0.1 to 1 µM | 0.1 to 1 µM | < 0.1 µM | 0.1 to 1 µM | CCN(c1nc(OC[C@@]23CCCN2C[C@H](F)C3)nc2c(F)c(-c3ccc(F)c4sc(N)c(C#N)c34)c(C(F)(F)F)cc12)[C@H]1CCN(C(=O)C2C[C@@H]2F)[C@@H]1C (stereo partly drawn) [Compound 883]
21 | 0.1 to 1 µM | < 0.1 µM | 0.1 to 1 µM | 0.1 to 1 µM | < 0.1 µM | 0.1 to 1 µM | CCN(c1nc(OC[C@@]23CCCN2C[C@H](F)C3)nc2c(F)c(-c3ccc(F)c4sc(N)c(C#N)c34)c(C(F)(F)F)cc12)[C@H]1C[C@H]2[C@@H](C)OC(=O)N2C1 (atropisomer, axis not shown) [Compound 823]
